Data: US10501464B2, “7-oxo-6-(sulfooxy)-1,6-diazabicyclo[3.2.1]octane-2-carboxamide containing compounds and their use in treating bacterial infections” (WOCKHARDT LIMITED, priority 2015, dated 2019)
Where two headings read alike, the source gives them in different places.

What was measured:
Assay in all cases: Antibacterial activity, MIC by agar dilution (CLSI)
Assay type in all cases: cell-based
E. coli M 50 = settings: compound tested alone
Description: (§1) The biological activity of representative compounds according to the invention against various bacterial strains was investigated. In a typical study, overnight grown bacterial cultures were diluted appropriately and inoculated on the agar media containing doubling dilutions of the test compounds. Observations for growth or no growth was performed after 16-20 hours of incubation at 35±2° C. in the ambient air. The overall procedure was performed as per Clinical and Laboratory Standards Institute (CLSI) recommendations, (Clinical and Laboratory Standards Institute (CLSI), Performance Standards for Antimicrobial Susceptibility Testing, 20th Informational Supplement, M07-A9, Volume 32, No. 2, 2012). Molten Mueller Hinton Agar (BD, USA) containing serial dilutions of each antibacterial agent were poured on to the plates and allowed to solidify. Appropriate suspensions from the freshly grown cultures were prepared in normal saline so that about 10^4CFU/spot of the organism was delivered on to the drug containing agar plates using automated multipoint inoculator (Mast, UK). The plates were incubated in Biochemical oxygen demand (BOD) incubator at 37° C. for 18 hours and then examined for growth.
(§2) Method for the determination of MIC: The Minimum Inhibitory Concentration (MIC) determination for the combinations was carried out in Muller Hinton Agar (MHA) (BD, USA) according to Clinical and Laboratory Standards Institute (CLSI) recommendations, (Clinical and Laboratory Standards Institute (CLSI), Performance Standards for Antimicrobial Susceptibility Testing, 20th Informational Supplement, M 100-S20, Volume 30, No. 1, 2010). In short, the test strains were adjusted to deliver about 10^4CFU per spot with a multipoint inoculator (Applied Quality Services, UK). The plates were poured with MHA containing doubling concentration range of representative compounds according to present invention. The plates were inoculated and were incubated at 35° C. for 18 hour. […] The Table 2 depicts the antibacterial activity profile of compounds according to present invention against various multidrug resistant bacterial strains.

K. pneumoniae H 525 = settings: compound tested alone
Description: as §1, §2

K. pneumoniae H 523 = settings: compound tested alone
Description: as §1, §2

E. coli H 483 = settings: compound tested alone
Description: as §1, §2

K. pneumoniae H 522 = settings: compound tested alone
Description: as §1, §2

P. mirabilis S 137B = settings: compound tested alone
Description: as §1, §2

E. coli 13352 = settings: compound tested alone
Description: as §1, §2

E. coli 13351 = settings: compound tested alone
Description: as §1, §2

[1] = system: K. pneumoniae ATCC 700603
Description: as §1, §2

E. coli M 138 = settings: compound tested alone
Description: as §1, §2

E. coli 7 MP = settings: compound tested alone
Description: as §1, §2

E. coli 13353 = settings: compound tested alone
Description: as §1, §2

K. pneumoniae H 521 = settings: compound tested alone
Description: as §1, §2

E. coli M 36 = settings: compound tested alone
Description: as §1, §2

E. coli M 49 = settings: compound tested alone
Description: as §1, §2

[2] = Escherichia coli, M50, E. coli M 50, read-out: MIC
[3] = Klebsiella pneumoniae, H525, K. pneumoniae H 525, read-out: MIC
[4] = Klebsiella pneumoniae, H523, K. pneumoniae H 523, read-out: MIC
[5] = Klebsiella pneumoniae, H522, K. pneumoniae H 522, read-out: MIC
[6] = Proteus mirabilis, S137B, read-out: MIC
[7] = Escherichia coli, 13352, E. coli 13352, read-out: MIC
[8] = Escherichia coli, 13351, E. coli 13351, read-out: MIC
[9] = Klebsiella pneumoniae, ATCC700603, compound tested alone, read-out: MIC
[10] = Escherichia coli, M138, E. coli M 138, read-out: MIC
[11] = Escherichia coli, 7MP, read-out: MIC
[12] = Escherichia coli, 13353, E. coli 13353, read-out: MIC
[13] = Klebsiella pneumoniae, H521, K. pneumoniae H 521, read-out: MIC
[14] = Escherichia coli, M36, E. coli M 36, read-out: MIC
[15] = Escherichia coli, M49, E. coli M 49, read-out: MIC

MIC (E. coli M 50; [2]) | MIC (K. pneumoniae H 525; [3]) | MIC (K. pneumoniae H 523; [4]) | MIC (K. pneumoniae H 522; [5]) | MIC (P. mirabilis S 137B; [6]) | MIC (E. coli 13352; [7]) | MIC (E. coli 13351; [8]) | MIC [1, 9] | MIC (E. coli M 138; [10]) | MIC (E. coli 7 MP; [11]) | MIC (E. coli 13353; [12]) | MIC (K. pneumoniae H 521; [13]) | MIC (E. coli M 36; [14]) | MIC (E. coli M 49; [15]) | SMILES | also measured
– | – | – | – | – | – | – | – | – | – | – | – | – | – | CC(C)(O/N=C(\C(=O)N[C@@H]1C(=O)N2C(C(=O)[O-])=C(C[n+]3ccccc3)CS[C@H]12)c1csc(N)n1)C(=O)O [Ceftazidime, reference compound] | MIC (E. coli M 50; E. coli M 50): >32 µg/mL; MIC (K. pneumoniae H 525; K. pneumoniae H 525): >32 µg/mL; MIC (K. pneumoniae H 523; K. pneumoniae H 523): >32 µg/mL; MIC (E. coli H 483): >32 µg/mL; MIC (K. pneumoniae H 522; K. pneumoniae H 522): >32 µg/mL; MIC (P. mirabilis S 137B): >32 µg/mL; MIC (E. coli 13352; E. coli 13352): >32 µg/mL; MIC (E. coli 13351; E. coli 13351): 16 µg/mL; MIC ([1]; compound tested alone): 16 µg/mL; MIC (E. coli M 138; E. coli M 138): >32 µg/mL; MIC (E. coli 7 MP): >32 µg/mL; MIC (E. coli 13353; E. coli 13353): >32 µg/mL; MIC (K. pneumoniae H 521; K. pneumoniae H 521): >32 µg/mL; MIC (E. coli M 36; E. coli M 36): >32 µg/mL; MIC (E. coli M 49; E. coli M 49): >32 µg/mL
2 µg/mL | 4 µg/mL | 4 µg/mL | 4 µg/mL | > 32 µg/mL | 4 µg/mL | 4 µg/mL | > 32 µg/mL | 4 µg/mL | 8 µg/mL | 4 µg/mL | 8 µg/mL | 2 µg/mL | 16 µg/mL | O=C(NNC(=O)[C@@H]1CC[C@@H]2CN1C(=O)N2OS(=O)(=O)O)[C@@H]1C[C@@H](n2ccnc2)CN1 [Example 33] | –
4 µg/mL | 2 µg/mL | 2 µg/mL | 2 µg/mL | > 32 µg/mL | 8 µg/mL | 4 µg/mL | > 32 µg/mL | 8 µg/mL | 16 µg/mL | 4 µg/mL | 2 µg/mL | 4 µg/mL | 16 µg/mL | O=C(NNC(=O)[C@@H]1CC[C@@H]2CN1C(=O)N2OS(=O)(=O)O)[C@@H]1C[C@H](n2ccnc2)CN1 [Example 30] | –
2 µg/mL | 4 µg/mL | 4 µg/mL | 4 µg/mL | > 32 µg/mL | 4 µg/mL | 4 µg/mL | > 32 µg/mL | 4 µg/mL | 8 µg/mL | 2 µg/mL | 4 µg/mL | 1 µg/mL | 16 µg/mL | O=C(NOC[C@@H]1C[C@H](n2ncnn2)CN1)[C@@H]1CC[C@@H]2CN1C(=O)N2OS(=O)(=O)O [Example 1, (2S,5R)-N-{[(2S,4S)-4-(2H-tetrazol-2-yl)pyrrolidin-2-yl]methyloxy}-7-oxo-6-(sulfooxy)-1,6-diazabicyclo[3.2.1]octane-2-carboxamide] | –
1 µg/mL | 8 µg/mL | 4 µg/mL | 4 µg/mL | > 32 µg/mL | 1 µg/mL | 1 µg/mL | > 32 µg/mL | 2 µg/mL | 2 µg/mL | 0.5 µg/mL | 4 µg/mL | 1 µg/mL | 8 µg/mL | O=C(NNC(=O)[C@@H]1CC[C@@H]2CN1C(=O)N2OS(=O)(=O)O)[C@@H]1C[C@H](n2nccn2)CN1 [Example 25] | –
1 µg/mL | 2 µg/mL | 2 µg/mL | 2 µg/mL | > 32 µg/mL | 2 µg/mL | 2 µg/mL | > 32 µg/mL | 1 µg/mL | 4 µg/mL | 1 µg/mL | 2 µg/mL | 1 µg/mL | 8 µg/mL | O=C(NOC[C@@H]1C[C@H](n2ccnn2)CN1)[C@@H]1CC[C@@H]2CN1C(=O)N2OS(=O)(=O)O [Example 6] | –
4 µg/mL | 16 µg/mL | 16 µg/mL | 8 µg/mL | > 32 µg/mL | 2 µg/mL | 2 µg/mL | > 32 µg/mL | 4 µg/mL | 8 µg/mL | 2 µg/mL | 8 µg/mL | 4 µg/mL | > 32 µg/mL | O=C(NNC(=O)[C@@H]1CC[C@@H]2CN1C(=O)N2OS(=O)(=O)O)[C@@H]1C[C@H](n2ccnn2)CN1 [Example 26] | –
4 µg/mL | 4 µg/mL | 4 µg/mL | 4 µg/mL | > 32 µg/mL | 2 µg/mL | 2 µg/mL | > 32 µg/mL | 4 µg/mL | 8 µg/mL | 4 µg/mL | 4 µg/mL | 4 µg/mL | 16 µg/mL | O=C(NNC(=O)[C@@H]1CC[C@@H]2CN1C(=O)N2OS(=O)(=O)O)[C@@H]1C[C@H](n2cnnn2)CN1 [Example 24] | –
1 µg/mL | 4 µg/mL | 4 µg/mL | 4 µg/mL | > 32 µg/mL | 2 µg/mL | 2 µg/mL | > 32 µg/mL | 2 µg/mL | 4 µg/mL | 1 µg/mL | 4 µg/mL | 1 µg/mL | 8 µg/mL | O=C(NNC(=O)[C@@H]1CC[C@@H]2CN1C(=O)N2OS(=O)(=O)O)[C@@H]1C[C@H](n2ncnn2)CN1 [Example 23] | –
– | 4 µg/mL | 4 µg/mL | 4 µg/mL | > 32 µg/mL | – | – | > 32 µg/mL | 2 µg/mL | 8 µg/mL | – | 4 µg/mL | 2 µg/mL | – | O=C(NNC(=O)[C@@H]1CC[C@@H]2CN1C(=O)N2OS(=O)(=O)O)[C@@H]1C[C@@H](n2cccn2)CN1 [Example 3] | MIC (E. coli M 50; E. coli M 50): 1 µg/mL; MIC (E. coli 13352; E. coli 13352): 1 µg/mL; MIC (E. coli 13351; E. coli 13351): 1 µg/mL; MIC (E. coli 13353; E. coli 13353): 1 µg/mL; MIC (E. coli M 49; E. coli M 49): 4 µg/mL
– | 4 µg/mL | 4 µg/mL | 4 µg/mL | > 32 µg/mL | – | – | > 32 µg/mL | 2 µg/mL | – | – | 4 µg/mL | – | 8 µg/mL | O=C(NNC(=O)[C@@H]1CC[C@@H]2CN1C(=O)N2OS(=O)(=O)O)C1C[C@H](n2ccnc2)CN1 (stereo partly drawn) [Example 28] | MIC (E. coli M 50; E. coli M 50): 2 µg/mL; MIC (E. coli 13352; E. coli 13352): 1 µg/mL; MIC (E. coli 13351; E. coli 13351): 1 µg/mL; MIC (E. coli 7 MP): 4 µg/mL; MIC (E. coli 13353; E. coli 13353): 1 µg/mL; MIC (E. coli M 36; E. coli M 36): 1 µg/mL
8 µg/mL | 8 µg/mL | 16 µg/mL | 16 µg/mL | > 32 µg/mL | 4 µg/mL | 4 µg/mL | > 32 µg/mL | 8 µg/mL | 16 µg/mL | 4 µg/mL | 16 µg/mL | 4 µg/mL | > 32 µg/mL | Cc1nnn([C@@H]2CN[C@H](C(=O)NNC(=O)[C@@H]3CC[C@@H]4CN3C(=O)N4OS(=O)(=O)O)C2)n1 [Example 31] | –
0.5 µg/mL | 2 µg/mL | 2 µg/mL | 2 µg/mL | > 32 µg/mL | 1 µg/mL | 1 µg/mL | > 32 µg/mL | 1 µg/mL | 2 µg/mL | 0.5 µg/mL | 2 µg/mL | 0.5 µg/mL | 4 µg/mL | O=C(NNC(=O)[C@@H]1CC[C@@H]2CN1C(=O)N2OS(=O)(=O)O)[C@@H]1C[C@H](n2cncn2)CN1 [Example 29] | –
